Converted amounts (≈) assume the structure as drawn. Where two headings read alike, the source gives them in different places. Each block holds one molecule with its values, some of them ahead of it.
Tests used:
MV411 cells [1] = test: MTS cytotoxicity assay against MV411 cells; type: cell-based
Description: (§1) The obtained compounds were tested in biological experiments to measure their potency in inhibiting the growth of AML cells and in their degradation of CDK9. These measurements are reported as half-maximum growth inhibitory and half-maximum degradation concentrations, IC50s and DC50s, respectively. Maximum percent degradation (Dmax) values were also obtained during the CDK9 degradation assessments. The common MTS assay was used to acquire the IC50 values, while the DC50 values were obtained using an automated western blot experiment. These values are presented in Table 2, along with pIC50 (log(nM IC50)) to more accurately reflect the differences/lack thereof in in vitro cytotoxicity. The notation “N:N*” represents the number of linker atoms on each side of the rigid triazole ring for a given degrader. Predicted log D values, calculated using the ChemAxon […], are also provided for each degrader. To characterize the physicochemical properties of the new degrader series, two additional assays were performed: a kinetic aqueous solubility assay and the chromatographic log D experiment described earlier. Aqueous solubility is shown in μM while experimentally determined log D is shown as log k′80. Details regarding the execution of each experiment are provided below.

CDK9 [2] = biological target: T1, CDK9 (Homo sapiens, UniProt P50750+Q96SW2); test: CDK9 degradation, automated western blot, triazole-containing AT7519 degraders (MV411); type: cell-based; details: for DC50: CDK9 degradation, MV411 cells; for Dmax: MV4-11
T1 construct: endogenous in cells
Description: as §1

[3] = Chromatographic log D determination (log k′80); type: physicochemical; details: for logk′80: chromatographic log D, PLRP-S column, pH 7.72
Procedure, shortened: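 Samples were diluted from DMSO stock to 122 μM in acetonitrile and run on a PLRP-S column in 20:80 aqueous ammonium acetate/acetonitrile, pH 7.72, at 1 mL/min with UV detection at 337 nm. log k′80 used a fixed 0.3 min dead time derived from a five-compound standard set. Runs were done in triplicate.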

AML cells = test: Drug washout experiment (cytotoxicity); type: cell-based; details: 6 h drugging, 48 h total
Description: To better evaluate the catalytic mechanism of action of this degrader series, a drug washout (WO) experiment was performed. This experiment involved the drugging of cells for six hours after which the cell media was replaced with a drug-free batch.

Kinetic solubility assay = details: kinetic solubility, PBS pH 7.4; for solubility at 1.5 h: phosphate buffered saline, pH 7.4, aqueous buffer, kinetic from dmso stock, Solubility (μM)
Description: (§2) Kinetic Solubility Assay. Kinetic solubility (KS) was measured according to Millipore protocol PC2445 EN00. Test compounds were weighed and diluted with DMSO to 10 mM. From the stock solutions as well as blank (100% DMSO) was taken 17.5 μL and diluted to 500 μM with 332.5 μL of 100 mM phosphate Buffered Saline (PPBS) at pH 7.4 in a 96-well quartz plate. From the 500 μM solutions was taken 150 μL and dispensed into a 96-well Millipore filter plate (Product number: MSSLBPC10). In the quartz plate, serial dilutions were performed down to 0.5 μM using the 100 mM PBS solution, leaving 100 μL of each test sample at 11 different concentrations, representing standards. These steps were performed in triplicate, at minimum, for each test compound. Both plates were shaken on an orbital shaker at 150 rpm for 1.5 hours. The contents of the filter plate were filtered and 100 μL of the filtrate from each well was dispensed into the quartz plate containing standards. The quartz plate was then analyzed using a UV plate reader where absorbance was measured at the relevant wavelength for each compound. After blank subtraction, for each test sample, solubility was determined based on the optical density of filtered samples and the equations derived from the corresponding linear standard curve.

MV411 cells [4] = test: Cellular potency in human serum versus fetal bovine serum, MV411; type: cell-based
Excerpt: FIGS. 3A-3C. In vitro cellular potency (against MV411 cells) in human serum (HS) versus fetal bovine serum (FBS) for compounds 4.7b (FIG. 3A) 4.9c (FIG. 3B), and 4,8a (FIG. 3C).
This contrasts with 4.8a, which loses its potency by almost 20-fold in human serum (FIG. 3C).

CDK9 [5] = test: In vivo CDK9 degradation in mice; details: preliminary study, AML-xenografted mice
Description: Both degraders were able to degrade CDK9 at low nanomolar concentrations. […] Moreover, dissolution of the test compounds in the 10 mM phosphate buffered saline (PBS) media was very difficult. Solvents, such as dimethylsulfoxide (DMSO), polyethylene glycol and Tween 80©, had to be added in generous quantities to the PBS vehicle to facilitate solubility of the test compounds and allow for the preliminary in vivo assessment that led to the conclusion of inactivity in mice. Significant toxicity, in the form of death and inflammation at the injection site, was also observed due to the inclusion of these additives in the PBS vehicle.

[6] = pH 7.4
Description: as §2

[7] = Homo sapiens, MV4-11, defined as log(nM IC50), MV411, read-out: pIC50 (converted)
[8] = Homo sapiens, MV4-11, growth inhibition, MV411 cells, MTS, read-out: IC50
[9] = maximum percent CDK9 degradation

T1 sequence (P50750 whole entry): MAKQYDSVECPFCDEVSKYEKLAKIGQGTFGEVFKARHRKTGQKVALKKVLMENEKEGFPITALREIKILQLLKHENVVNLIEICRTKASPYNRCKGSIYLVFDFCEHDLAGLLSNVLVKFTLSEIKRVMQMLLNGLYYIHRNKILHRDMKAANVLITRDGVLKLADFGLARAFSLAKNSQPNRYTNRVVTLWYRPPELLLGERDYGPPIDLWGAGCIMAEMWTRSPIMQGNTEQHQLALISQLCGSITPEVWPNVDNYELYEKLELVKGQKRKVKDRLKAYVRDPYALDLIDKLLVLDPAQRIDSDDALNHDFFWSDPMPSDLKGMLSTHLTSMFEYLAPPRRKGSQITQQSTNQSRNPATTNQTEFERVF
T1 sequence (O60563 whole entry partner): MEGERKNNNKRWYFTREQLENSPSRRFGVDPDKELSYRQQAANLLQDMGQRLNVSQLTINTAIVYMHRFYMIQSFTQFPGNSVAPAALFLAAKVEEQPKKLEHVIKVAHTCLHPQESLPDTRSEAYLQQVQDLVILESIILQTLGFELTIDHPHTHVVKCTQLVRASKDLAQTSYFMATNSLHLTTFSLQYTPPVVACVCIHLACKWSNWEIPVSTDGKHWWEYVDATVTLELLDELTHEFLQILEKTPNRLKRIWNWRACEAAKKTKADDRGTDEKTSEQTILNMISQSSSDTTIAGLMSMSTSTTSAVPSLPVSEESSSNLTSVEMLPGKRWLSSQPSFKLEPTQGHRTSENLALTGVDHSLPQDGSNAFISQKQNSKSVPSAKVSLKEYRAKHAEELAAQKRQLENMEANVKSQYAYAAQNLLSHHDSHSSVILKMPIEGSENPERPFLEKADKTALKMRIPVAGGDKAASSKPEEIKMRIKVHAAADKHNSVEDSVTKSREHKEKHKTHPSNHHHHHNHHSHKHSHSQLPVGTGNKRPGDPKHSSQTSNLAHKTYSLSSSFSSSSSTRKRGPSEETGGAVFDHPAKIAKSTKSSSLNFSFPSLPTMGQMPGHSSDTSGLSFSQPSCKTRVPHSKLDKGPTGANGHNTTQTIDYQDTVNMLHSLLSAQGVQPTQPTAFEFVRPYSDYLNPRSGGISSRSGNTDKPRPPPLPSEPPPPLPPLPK
T1 sequence (Q96SW2 whole entry): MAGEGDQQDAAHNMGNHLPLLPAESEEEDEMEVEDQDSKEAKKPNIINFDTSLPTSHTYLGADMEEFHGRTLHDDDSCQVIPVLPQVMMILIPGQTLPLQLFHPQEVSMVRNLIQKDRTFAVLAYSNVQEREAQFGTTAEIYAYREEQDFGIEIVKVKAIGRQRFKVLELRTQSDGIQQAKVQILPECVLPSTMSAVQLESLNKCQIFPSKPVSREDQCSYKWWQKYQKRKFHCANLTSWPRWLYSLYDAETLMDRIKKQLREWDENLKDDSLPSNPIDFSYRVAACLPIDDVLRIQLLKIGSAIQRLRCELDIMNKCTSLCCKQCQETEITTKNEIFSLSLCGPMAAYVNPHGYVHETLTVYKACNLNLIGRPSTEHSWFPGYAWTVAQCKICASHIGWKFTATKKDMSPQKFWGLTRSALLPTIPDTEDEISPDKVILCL
T1 sequence (Q16531 whole entry partner): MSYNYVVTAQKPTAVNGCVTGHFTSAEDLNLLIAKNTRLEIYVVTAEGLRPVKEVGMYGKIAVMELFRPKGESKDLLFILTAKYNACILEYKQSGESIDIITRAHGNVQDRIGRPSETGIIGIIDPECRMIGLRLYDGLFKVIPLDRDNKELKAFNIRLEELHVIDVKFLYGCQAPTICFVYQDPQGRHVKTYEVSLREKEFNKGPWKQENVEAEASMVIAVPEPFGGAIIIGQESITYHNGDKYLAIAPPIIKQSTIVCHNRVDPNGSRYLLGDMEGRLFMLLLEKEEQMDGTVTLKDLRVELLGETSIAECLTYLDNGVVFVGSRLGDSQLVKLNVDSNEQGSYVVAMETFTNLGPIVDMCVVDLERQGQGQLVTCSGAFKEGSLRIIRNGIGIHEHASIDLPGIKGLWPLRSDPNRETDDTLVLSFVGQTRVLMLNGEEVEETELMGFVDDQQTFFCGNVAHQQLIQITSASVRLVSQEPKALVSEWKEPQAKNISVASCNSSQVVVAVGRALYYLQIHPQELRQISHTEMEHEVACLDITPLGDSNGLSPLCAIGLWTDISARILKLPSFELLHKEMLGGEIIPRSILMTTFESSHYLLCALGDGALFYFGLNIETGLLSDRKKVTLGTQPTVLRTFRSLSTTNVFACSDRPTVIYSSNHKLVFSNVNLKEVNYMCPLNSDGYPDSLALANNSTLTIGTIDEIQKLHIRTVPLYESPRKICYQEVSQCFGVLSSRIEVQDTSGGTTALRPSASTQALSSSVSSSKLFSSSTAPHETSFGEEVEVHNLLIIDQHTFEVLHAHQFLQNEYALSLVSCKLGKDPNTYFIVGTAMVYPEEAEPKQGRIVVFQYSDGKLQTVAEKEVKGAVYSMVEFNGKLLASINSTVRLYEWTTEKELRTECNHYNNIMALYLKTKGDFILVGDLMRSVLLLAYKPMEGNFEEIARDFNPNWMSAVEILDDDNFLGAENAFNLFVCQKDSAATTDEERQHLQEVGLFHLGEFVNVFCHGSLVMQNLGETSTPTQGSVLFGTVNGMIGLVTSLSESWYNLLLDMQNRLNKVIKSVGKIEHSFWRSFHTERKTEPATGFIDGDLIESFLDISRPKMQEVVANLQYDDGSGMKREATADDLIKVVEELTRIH

SMILES: O=C1CCC(N2C(=O)c3cccc(OCCCn4cc(CCCCN5CCC(NC(=O)c6n[nH]cc6NC(=O)c6c(Cl)cccc6Cl)CC5)nn4)c3C2=O)C(=O)N1 (stereo not drawn) [Compound 4.7b, 4-(2,6-dichlorobenzamido)-N-(1-(4-(1-(3-((2-(2,6-dioxopiperidin-3-yl)-1,3-dioxoisoindolin-4-yl)oxy)propyl)-1H-1,2,3-triazol-4-yl)butyl)piperidin-4-yl)-1H-pyrazole-3-carboxamide]
- IC50 (MV411 cells [1]; [7]): 200 nM
- IC50 (MV411 cells [1]; [8]): 190 nM
- DC50 (CDK9 [2]): 69.2 nM
- Dmax (CDK9 [2]; [9]): 79.1%
- logk′80 [3]: 0.084
- improvement in cytotoxicity in human serum versus FBS (MV411 cells [4]): ~3 fold
- in vivo CDK9 degradation (CDK9 [5]): not observed
- Solubility (Kinetic solubility assay): 40.9 µM (≈ 33.5 µg/mL)
- solubility at 1.5 h (Kinetic solubility assay): 40 µM (≈ 32.8 µg/mL)

SMILES: O=C1CCC(N2C(=O)c3cccc(OCCCn4cc(CCCCCCCCCCN5CCC(NC(=O)c6n[nH]cc6NC(=O)c6c(Cl)cccc6Cl)CC5)nn4)c3C2=O)C(=O)N1 (stereo not drawn) [Compound 4.9c, 4-(2,6-dichlorobenzamido)-N-(1-(10-(1-(3-((2-(2,6-dioxopiperidin-3-yl)-1,3-dioxoisoindolin-4-yl)oxy)propyl)-1H-1,2,3-triazol-4-yl)decyl)piperidin-4-yl)-1H-pyrazole-3-carboxamide]
- IC50 (MV411 cells [1]; [7]): 7.94 nM
- IC50 (MV411 cells [1]; [8]): 8.8 nM
- improvement in cytotoxicity over constitutional isomers (MV411 cells [1]; within isomer set): ~10 fold
- DC50 (CDK9 [2]): 44.8 nM
- Dmax (CDK9 [2]; [9]): 88.6%
- minimum difference in log k′80 to constitutional isomers [3]: 0.013
- logk′80 [3]: 0.197
- loss of potency in human serum versus FBS (MV411 cells [4]): 3 fold
- retention of potency after drug washout (AML cells): retain their potency
- solubility at 1.5 h (Kinetic solubility assay): 3.42 µM (≈ 3.09 µg/mL)

SMILES: O=C1CCC(N2C(=O)c3cccc(OCCCCCCn4cc(CCCCCCCN5CCC(NC(=O)c6n[nH]cc6NC(=O)c6c(Cl)cccc6Cl)CC5)nn4)c3C2=O)C(=O)N1 (stereo not drawn) [Compound 4.9b]
- pIC50 (MV411 cells [1]; defined as log(nM IC50), MV411): 1.8
- IC50 (MV411 cells [1]; growth inhibition, MV411 cells, MTS, read-out: IC50): 63.3 nM
- DC50 (CDK9 [2]): 61.4 nM
- Dmax (%) (CDK9 [2]; [9]): 78.0%
- logk′80 [3]: 0.176
- retention of potency after drug washout (AML cells): retain their potency
- Solubility [6]: 4.70 µM (≈ 4.25 µg/mL)

Second part, led by results:

- DC50 (CDK9 [2]): 99.9 nM
- Dmax (CDK9 [2]; [9]): 70.1%
- logk′80 [3]: 0.140
- solubility at 1.5 h (Kinetic solubility assay): 5.46 µM (≈ 4.78 µg/mL)
SMILES: O=C1CCC(N2C(=O)c3cccc(OCCCCCCn4cc(CCCCCN5CCC(NC(=O)c6n[nH]cc6NC(=O)c6c(Cl)cccc6Cl)CC5)nn4)c3C2=O)C(=O)N1 (stereo not drawn) [Compound 4.10, 4-(2,6-dichlorobenzamido)-N-(1-(5-(1-(6-((2-(2,6-dioxopiperidin-3-yl)-1,3-dioxoisoindolin-4-yl)oxy)hexyl)-1H-1,2,3-triazol-4-yl)pentyl)piperidin-4-yl)-1H-pyrazole-3-carboxamide]
- improvement in cytotoxicity over 4.3 (MV411 cells [1]; 4.10 versus 4.3): over 5 fold
- IC50 (MV411 cells [1]; [7]): 50.1 nM
- IC50 (MV411 cells [1]; [8]): 46.6 nM
- retention of potency after drug washout (AML cells): retain their potency

- DC50 (CDK9 [2]): 60.1 nM
- Dmax (CDK9 [2]; [9]): 88.3%
- minimum difference in log k′80 to constitutional isomers [3]: 0.030
- logk′80 [3]: 0.146
- solubility at 1.5 h (Kinetic solubility assay): 5.65 µM (≈ 4.79 µg/mL)
SMILES: O=C1CCC(N2C(=O)c3cccc(OCCCCCCCn4cc(CCN5CCC(NC(=O)c6n[nH]cc6NC(=O)c6c(Cl)cccc6Cl)CC5)nn4)c3C2=O)C(=O)N1 (stereo not drawn) [Compound 4.8a, 4-(2,6-dichlorobenzamido)-N-(1-(2-(1-(7-((2-(2,6-dioxopiperidin-3-yl)-1,3-dioxoisoindolin-4-yl)oxy)heptyl)-1H-1,2,3-triazol-4-yl)ethyl)piperidin-4-yl)-1H-pyrazole-3-carboxamide]
- IC50 (MV411 cells [1]; [7]): 50.1 nM
- IC50 (MV411 cells [1]; [8]): 46.9 nM
- loss of potency in human serum versus FBS (MV411 cells [4]): ~20 fold
